In the NIST ThermoML archive (doi:10.1016/j.jct.2012.05.007):

Conditions: Liquid, Falling or rolling sphere viscometry

COCC[N+]1(C)CCCC1.O=S(=O)([N-]S(=O)(=O)C(F)(F)F)C(F)(F)F
viscosity [mPa·s]
Conditions | 10000 kPa | 15000 kPa | 25000 kPa | 50000 kPa | 75000 kPa | 100000 kPa | 125000 kPa | 150000 kPa
313.15 K | 33.3 | 35.3 | 39.5 | 52 | 67.5 | 86.9 | 111.2 | 141.5
343.15 K | 14.8 | 15.5 | 17 | 21.2 | 26.2 | 32.3 | 39.6 | 48.5
363.15 K | 10.2 | 10.7 | 11.6 | 14.3 | 17.5 | 21.2 | 25.5 | 30.5

CCCC[N+]1(C)CCCC1.O=S(=O)([N-]S(=O)(=O)C(F)(F)F)C(F)(F)F
viscosity [mPa·s]
Conditions | 10000 kPa | 15000 kPa | 25000 kPa | 50000 kPa | 75000 kPa | 100000 kPa | 125000 kPa | 150000 kPa
313.15 K | 46.5 | 49.5 | 55.9 | 74.8 | 98.8 | 129.4 | 168.4 | 218
343.15 K | 18.2 | 19.1 | 21.1 | 26.6 | 33.6 | 42.1 | 52.8 | 66.3
363.15 K | 12.2 | 12.8 | 14.1 | 17.7 | 21.9 | 26.7 | 32.2 | 38.7

CCOS(=O)(=O)[O-].CCn1cc[n+](C)c1 [1-ethyl-3-methylimidazolium ethyl sulfate]
viscosity [mPa·s]
Conditions | 10000 kPa | 15000 kPa | 25000 kPa | 50000 kPa | 75000 kPa | 100000 kPa | 125000 kPa | 150000 kPa
313.15 K | 54.3 | 56.4 | 60.9 | 73.6 | 88.6 | 106.6 | 128.1 | 153.8
343.15 K | 20.2 | 20.9 | 22.3 | 26.1 | 30.3 | 35 | 40.2 | 46.1
363.15 K | 13.2 | 13.6 | 14.5 | 16.8 | 19.2 | 22 | 25 | 28.2
